Results published in a melting point compilation (Tetko et al.; mined from patent text by program, amines drawn as free bases though some values may be those of a salt).

Compound	melting point [°C]
COc1ccc(NCCNc2ccc([N+](=O)[O-])cc2)cc1	150
CN=C1CCCc2scnc21	233 to 235
CC(=O)OCCCc1ccc(-c2ccc3cc(C(=O)OCc4ccccc4)ccc3c2)cc1C12CC3CC(CC(C3)C1)C2	132
Oc1c(I)cccc1-c1c(Cl)cccc1Cl	51 to 53
CCOC(=O)C(=NOC(CC)C(=O)O)c1csc(NC(c2ccccc2)(c2ccccc2)c2ccccc2)n1 (configuration not stated)	154
CCCCOc1ccc(Cc2nn(-c3ccccc3Cl)c(=O)o2)cc1	63
C=CCn1nc(-c2sc(C(=O)NCc3ccccn3)nc2-c2ccccc2)ccc1=O	117 to 118
COC(=O)CNC(=O)c1cc2cc(Cl)ccc2[nH]1	252 to 254
COc1ccc2[nH]cc(CC3=CCCN(CCCC(O)c4ccc(F)cc4)C3)c2c1 (configuration not stated)	160 to 170
CC(C)(Oc1ccccc1S(C)(=O)=O)C(=O)O	114 to 116
Cn1c(-c2ccccc2)nc(CN2CCN(c3ccc(O)cc3)CC2)cc1=O	206 to 207
CCSc1nc(O)ns1	129
Cc1cn(C)cc(-c2ccccc2)c1=O	111 to 113
O=C(C=Cc1cccc(S(=O)(=O)NCc2ccc3c(c2)OCO3)c1)NO	163
Cc1cc(O)c(S(=O)Cc2ccc(F)cc2)c(=O)o1 (configuration not stated)	127 to 128
CCC(C(=O)O)c1ccc(C(CC)C(=O)O)cc1 (configuration not stated)	198 to 202
C=C=C[C@]12CCC(=O)C=C1C(=O)C[C@@H]1[C@@H]2CC[C@]2(C)C(=O)CC[C@@H]12	187 to 190
O=C(Cc1ccc(-n2ccnc2)cc1)NOc1ccccn1	110
O=C(c1ccc(F)cc1)N1Cc2c(-c3ccc(F)cc3)ncn2-c2ccccc21	230 to 231
O=C(OCC1CC1)c1ncn2c1[C@@H]1CCCN1C(=O)c1ccccc1-2	189 to 190
Cc1cc(-c2cc(C(F)(F)F)n3ncc(C(=O)Nc4cccc(S(=O)(=O)NC(C)(C)CO)c4)c3n2)ccc1C(F)(F)F	230
N#Cc1cnc2cc(-c3ccc(CN4CCOCC4)cc3)sc2c1Nc1ccc(Oc2ccccc2)cc1	254 to 256
CCN1CCN(CCN2CC[C@H](NC(=O)c3cc(Cl)c(N)cc3OC)[C@H](OC(=O)N3CCCC3)C2)C1=O (relative stereo)	214
COc1ccc(C#N)c(C=C(C)N(C)C)n1	103 to 104
CCOC(=O)c1ccc(OCc2nc(-c3ccco3)oc2C)c(Cl)c1	145 to 146

Compound	melting point [°C]
NS(=O)(=O)c1ccc(-c2cc3n(c2-c2ccc(F)cc2)CCC3)cc1	207
CC(=O)N1CCc2c(sc(CCN3CCC(c4noc5cc(F)ccc45)CC3)c2Br)C1	114 to 117
CSc1ccc(Cn2c(C)c(CC(=O)O)c3cc(OCc4nc5ccccc5s4)ccc32)cc1	186 to 187
COC(=O)N(N=C(C)C)C(=O)c1ccc(Br)cc1	103 to 104
CCC(S)=C1SC(=S)N(c2ccc(Cl)cc2)C1=O	163 to 165
CS(=O)(=O)OCCc1ccc(OCc2ccccc2)cc1	48 to 50
O=c1oc2c(c(O)c1-c1ccccc1)CCCC2	168
CC(=O)C1(c2cccc(OCc3ccc4c(ccc(=O)n4C)c3)c2)CCOCC1	125 to 126
CC(=O)SCC(Cc1ccccc1)C(=O)Nc1cc(C(=O)O)ccc1Cl (configuration not stated)	204 to 206
Nc1nc2c(c(Nc3ccc(F)cc3)n1)-c1ccccc1C2	205 to 206
COc1ccc(C(=O)Nc2ccccc2CC2CCCCN2)cc1 (configuration not stated)	108 to 109
CCC(C)(C)NS(=O)(=O)c1ccc(CBr)cc1	100
Cc1ccccc1N1CCN(S(=O)(=O)c2ccc([N+](=O)[O-])cc2)CC1	176 to 178
CC(=O)Nc1cccc(C(=O)Nc2cccc3cc(Br)cnc23)c1	198 to 202
CS(=O)c1ccc(-n2cnc3ccc(-c4nnc(N)o4)cc32)cc1 (configuration not stated)	290 to 291
O=C(NCCc1ccccn1)c1ccc(S(=O)(=O)Nc2cccc3c(Cl)c[nH]c23)cc1	220 to 222
CC1(O)NC(=O)OC12CCN(Cc1ccccc1)CC2 (configuration not stated)	162 to 164
COc1ccc(Cc2cccc(-c3c(O)c4ccc(Cl)cc4[nH]c3=O)c2)cc1	282 to 284
CC(C)NCc1nc(-c2ncn3c2CN(C)C(=O)c2ccccc2-3)no1	142 to 144
Cc1noc([C@@H](Cc2ccccc2)NC(=O)[C@@H](Cc2ccc3ccccc3c2)NC(=O)[C@@H]2CCCN(C(=O)OC(C)(C)C)C2)n1	198 to 200
CCC1CC(=O)C2Oc3c(OC)ccc4c3C23CCN(C#N)C(C4)C13 (configuration not stated)	212 to 217
COc1ccc(N2CCN(c3c(C)c(C)c4c(c3C)C(N3CCN(Cc5ccccc5)CC3)C(C)(C)O4)CC2)cc1 (configuration not stated)	112 to 116
O=c1oc(=O)n(-c2ccccc2)c2ncccc12	196 to 198
CCC(O)(c1ccc(OCCCN2CCCCC2)cc1)c1ccccc1OC (configuration not stated)	110 to 111
CC(C)(C)c1cc(Oc2ccc(N)c(O)c2)ccc1Oc1ccc(N)c(O)c1	110 to 113

Compound	melting point [°C]
CC(C)(C)[S@](=O)N1CCC[C@@H]1c1ccc(Br)cc1	100 to 112
CC(=O)CN(c1ccc(Cl)cc1)S(C)(=O)=O	108
O=Cc1cccn1-c1ccc(C(F)(F)F)cc1Cl	119 to 120
O=C(O)c1coc(Cn2cc(C3c4ccccc4C=Cc4ccccc43)c(=S)[nH]c2=O)n1	200
CC(=O)N(Cc1cccs1)C1(c2ccc(Cl)cc2)CCC1	105 to 108
CC(=O)N1CCc2cc(-c3ccc4c(c3)CCC3N(C)C(=O)CCC43C)cc([N+](=O)[O-])c21 (single isomer, unassigned; (+))	235 to 240
CCCCNS(=O)(=O)CC(O)C(O)C(CC1CCCCC1)NC(=O)CCC(C)C (configuration not stated)	88 to 92
CN(C(=O)OC(C)(C)C)[C@H]1CC[C@H](/C=C/CCl)CC1	42.5 to 43.9
CCc1nc2c(N)nc3cc(OS(C)(=O)=O)ccc3c2n1CCOc1ccccc1	213 to 214
Cc1cc(=O)c2ccccc2o1	71
CCC(=O)N1CCC(NC(=O)Nc2cccc(C(F)(F)F)c2)CC1	153 to 154
COc1ccc([C@@H]2CN(C)CC[C@@H]2NC(=O)c2cccc(C(F)(F)F)c2)cc1OC (relative stereo)	122 to 124
COC(OC)c1c(SC(F)(F)F)c(C#N)nn1-c1c(Cl)cc(C(F)(F)F)cc1Cl	93
COCCC1(C(=O)N[C@@H](Cc2ccc(-c3c(C(F)(F)F)cc(C)n(C)c3=O)cc2)C(=O)O)CCCC1	181 to 183
CC(=O)NC[C@H]1CN(c2ccc(N3C[C@H]4CN(C(=O)CO)C[C@H]4C3)c(F)c2)C(=O)O1	167 to 168
COc1cccc2c(=O)n(C(C)(C)C(=O)OCC(=O)c3ccccc3)c(=O)[nH]c12	132 to 133
COc1cc(-c2ccc(Cl)cc2)nc2c(C(=O)Nc3cccc(S(C)(=O)=O)c3)cnn12	265
CCCCCOC(=O)c1cc(NC(=O)C2=C(C)OCCS2)ccc1Cl	65 to 68
CN1CCN(c2ccc(-c3nc4c(N[C@H]5[C@@H](C(N)=O)[C@@H]6C=C[C@H]5C6)ccnc4[nH]3)cc2)CC1	220 to 222
COc1nc2oc(-c3ccccc3)nc2cc1C	167 to 168
CC(C)(C)OC(=O)C1CCCN1C(=O)NN (configuration not stated)	83 to 84
COc1ccc(-c2nc(C(=O)NC(=N)N)sc2-c2ccc(OC)cc2)cc1	253 to 255
CC1Nc2ccccc2C(=O)N1CCN1CCC(c2noc3cc(F)ccc23)CC1 (configuration not stated)	164 to 165
O=C(Cc1ccc(OCc2cccs2)cc1)NC1(C(=O)O)Cc2ccc(-c3ccc(Cl)cc3)cc2C1 (configuration not stated)	201
CC1=C(C(=O)OC2CCCC2)C(c2c(F)cccc2Cl)C(C(=O)n2ccnc2)=C(C)N1 (configuration not stated)	150

Compound	melting point [°C]
CCCCC[C@H]1CC[C@H](CC[C@H]2CC[C@H](C#N)CC2)CC1	56.3
CC1=C(Nc2ccc(C3=NNC(=O)CC3)cc2)CCC1=O	284 to 285
CC1(C)CCC(C)(C)c2cc(-c3cc(-c4ccc(C(N)=O)cc4)ccc3-c3ccccc3)ccc21	220
Cc1occ2c1-c1ccccc1C(=C1CCN(C)CC1)c1ccccc1-2	80 to 86
CC12CC(F)C3c4ccc(O)cc4CC(CCCCCN4CCCC4)C3C1CCC2O (configuration not stated)	95 to 118
CCOC(=O)c1cc2cc(-c3ccc(C(C)O)cc3)ccc2o1 (configuration not stated)	108 to 109
Cc1ccc(C)c(P(=O)(C(=O)c2c(Cl)cccc2Cl)C(=O)c2c(Cl)cccc2Cl)c1	172
CN1C(=O)C(C(=O)Nc2ccc(Oc3ccc(C(F)(F)F)cn3)cc2)C(=O)N(C)C1=S	156 to 158
CC(C)OC(=O)N(O)CCN1CCCCC1	78 to 79
Cc1cc(C)c(C(=O)c2ccc(Cl)cc2)c(C)c1	65.5 to 66.5
CC(C)(C)c1ccc(CCNc2ncnc3ccncc23)cc1	157 to 158
O=S(c1ccc(/C=C/c2nc(COc3ccc(CCCCn4ccnn4)cc3)co2)cc1)C(F)(F)F (configuration not stated)	122 to 123
COc1ccc2c(C)n[nH]c(=O)c2c1	203 to 205
Cc1cccc(C)c1N(CC(C)O)C(=O)c1ccccc1 (configuration not stated)	121 to 122
OC1CCCc2nc3cc(Cl)ccc3c(NCc3ccc(F)cc3)c21 (configuration not stated)	187 to 188
CC(=O)OCc1cccc(-n2cccc2)c1Br	84 to 86.5
Cc1nccc2c1[nH]c1cc(O)ccc12	248
Cc1cc(-c2cc(C(F)(F)F)nn2-c2ccc(S(N)(=O)=O)c(F)c2)ccc1-c1cscn1	125 to 127
Cc1cccc([C@H]2[C@H](C(=O)Nc3ccc(F)c(F)c3)C2(C)C)c1 (relative stereo)	110 to 113
O=C(O)/C=C/c1ccc(-c2ccc(O)c(C34CC5CC(CC(C5)C3)C4)c2)c(Cl)c1	257 to 259
COc1ccc2c(n1)CCC(=NO)C2	124 to 126
Cc1[nH]c(=O)n(C2CCCCC2)c1-c1ccc(OCCC(C)C)cc1	198 to 200
